Measurements reported in article doi:10.1101/2020.04.13.040287v1 (biorxiv, 2020).
Read-outs that look alike come from different tables or passages of the source.

How the values were obtained:
in vitro [1] = conditions: human, intestinal s9
in vitro [2] = conditions: dog, intestinal s9
in vitro [3] = conditions: rat, plasma
in vitro [4] = conditions: dog
in vitro [5] = conditions: human
in vitro [6] = conditions: dog, plasma
in vitro [7] = conditions: human, plasma
DEN2 [8] = assay: microbe, parasite or virus in culture; conditions: Dengue virus, K562, read-out: K562 DEN2 assay (EC50)
DEN2 [9] = assay: microbe, parasite or virus in culture; conditions: Dengue virus, THP-1, read-out: THP-1 DEN2 assay (EC50)
DEN2 [10] = assay: microbe, parasite or virus in culture; conditions: Dengue virus, HEK-293T, read-out: 293T DEN2 assay (EC50)
[11] = liver s9, Liver S9 T1/2 (min) dog
[12] = liver s9, Liver S9 T1/2 (min) human

SMILES: COc1nc(N)nc2c1ncn2[C@@H]1O[C@H](COP(=O)(N[C@@H](C)C(=O)OC(C)C)Oc2ccccc2)[C@@H](O)[C@@]1(C)F (some centres unmarked) [compound 5, PSI-353661]
- half-life (in vitro [1]): > 2 h
- half-life (in vitro [2]): 1.2 h
- half-life (in vitro [3]): < 0.0833 h
- half-life (in vitro [4]; liver s9): 0.85 h
- half-life (in vitro [5]; liver s9): 0.3 h

SMILES: CCOc1nc(N)nc2c1ncn2C1OC2COP(=O)(NC(C)C(=O)OC(C)C)OC2C1(C)F (centres unmarked) [compound 12, 12]
- half-life (in vitro [3]; Plasma T1/2 (min) rat): < 0.0833 h
- half-life (in vitro [4]; [11]): 0.933 h

SMILES: CCOC(=O)C(NP1(=O)OCC2OC(n3cnc4c(OCC)nc(N)nc43)C(C)(F)C2O1)C(C)C (centres unmarked) [compound 20, 20]
- half-life (in vitro [3]; Plasma T1/2 (min) rat): 1.1 h
- half-life (in vitro [4]; [11]): 1.02 h
- half-life (in vitro [5]; [12]): 1.37 h

SMILES: CCOc1nc(N)nc2c1ncn2C1OC2COP(=O)(NCC(=O)OC(C)C)OC2C1(C)F (centres unmarked) [compound 16, 16]
- half-life (in vitro [3]; Plasma T1/2 (min) rat): < 0.0833 h
- half-life (in vitro [4]; [11]): 1.52 h
- half-life (in vitro [5]; [12]): 0.967 h

SMILES: COC(=O)C(C)NP1(=O)OCC2OC(n3cnc4c(OC(C)C)nc(N)nc43)C(C)(F)C2O1 (centres unmarked) [compound 19, 19]
- half-life (in vitro [6]): > 2 h
- half-life (in vitro [7]): 1.88 h
- half-life (in vitro [3]; Plasma T1/2 (min) rat): < 0.0833 h

SMILES: CCOc1nc(N)nc2c1ncn2[C@@H]1O[C@@H]2COP(=O)(OC(C)C)O[C@H]2[C@@]1(C)F (some centres unmarked) [compound 4, PSI-352938]
- half-life (in vitro [5]; [12]): > 2 h

SMILES: CCOC(=O)C(C)NP1(=O)OCC2OC(n3cnc4c(OCC)nc(N)nc43)C(C)(F)C2O1 (centres unmarked) [compound 17, 17]
- EC50 (DEN2 [8]): 2.79 ± 0.22 µM
- EC50 (DEN2 [9]): 0.46 ± 0.2 µM
- EC50 (DEN2 [10]): 3.4 µM
